The source of these data is patent publication US20230027854A1, “ISOXAZOLE DERIVATIVES TARGETING TACC3 AS ANTICANCER AGENTS” (A2A Pharmaceuticals, inc., priority 2019, published 2023).

Series [1] relates to JIMT-1 cells. Nature of the series: JIMT-1 cell growth inhibition / cell viability (SRB assay). Type of series: cell-based. To be noted: Homo sapiens. As to the method: The ability of the compounds of the present disclosure to treat TACC3-mediated cancers, or associated symptoms or complications thereof, was determined using the following procedures. The compounds of the present disclosure were tested for their activity against cell death induction using a JIMT-1 cell line, which was a cell line having high level of TACC3. The concentration of each compound that was required for half-maximal inhibition of cell proliferation was calculated by a GraphPad Prism (GraphPad Software).
In general terms: Sulforhodamine B stains cellular protein and so reports cell mass.

The test system of series [2] is JIMT-1 cells. Nature of the series: Colony formation assay. Type of series: cell-based, human. The conditions noted are these: 12 days. As to the method:
For monolayer culture, single-cell suspensions of JIMT-1 cells (3×10^3 cells/well) were plated in a 12-well plate. […] In order to test the colony formation capacity of MCF-12A cells during TACC3 overexpression, MCF-12A cells (2×10^5) were seeded into 6-well plates and TACC3 trasnfection was performed next day. 48 h following transfection, cells were counted and 1×10^3 cells/well were plated into 12-well plates. For both experimental setups, the media were refreshed every 4 days, and cells were incubated for 12 days. Cells were then fixed with 2% paraformaldehyde for 15 min and stained with 1% crystal violet (Merck, Darmstadt, Germany) for 15 min at RT. Surviving colonies (composed of at least 50 cells) were counted with ImageJ software (NIH).

Series [3] relates to JIMT-1 cells. Nature of the series: Immunofluorescence of aberrant spindle formation. Type of series: cell-based, human. The conditions noted are these: highest dose, 12 h. An excerpt: The presence of spindle defects activates the spindle assembly checkpoint (SAC) that further leads to mitotic arrest to provide the necessary time for repairing the spindle defects (Musacchio and Salmon 2007). […] To further test the contribution of an active SAC signaling to compound 5-induced mitotic arrest, DNA damage and cell death, we inhibited the SAC kinase, Mps1 using a specific inhibitor (TC Mps1 (Choi, Min et al. 2017)) in compound 5-treated cells, and analyzed the expression of relevant markers.
Immunofluorescence staining of JIMT-1 cells were performed as previously described (Cizmecioglu, Arnold et al. 2010). Basically, 1.5×10^5 JIMT-1 cells/well were seeded on glass coverslip in 6-well plates. […] Then, they are fixed with ice-cold methanol for 10 min at −20° C. Cells were then blocked with 3% BSA in PBS solution for 1 hour at RT and incubated with primary and secondary antibodies for 1 hour at RT. Cells were counter stained with DAPI for 5 min (0.01 μg/ml). Lastly, cover slides were mounted using ImmunoHistomounth (Santa Cruz). Images were taken with an upright fluorescent microscope equipped with DIC prisms (upright).

Series [4] relates to NCI-60 human cell lines. Kind of series: NCI-60 five-dose screen. Type of series: cell-based. As to the method: Detailed screening methodology can be accessed from https://dtp.cancer.gov/discovery_development/nci-60/methodology.htm webpage. Briefly, 24 h after cell seeding into 96-well plates, cells were treated with 5-log M concentration range of the compound for 2 days. Cytotoxicity was assessed using SRB assay. The data presented in the FIG.s are the average values of both experiments.

Series [5] concerns JIMT-1 xenografts. Nature of the series: JIMT-1 xenograft tumor growth in female nude mice. Type of series: in vivo.
Procedure: Six-to-eight-week-old female athymic nude or Balb/c mice were housed with a temperature-controlled and 12-hour light/12-hour dark cycle environment. This study was carried out in accordance with Institutional Animal Care and Use Committee of Bilkent University and performed according to the institution's guidelines and animal research principles. For in vivo breast cancer tumor growth in nude mice, 4×10^6 JIMT-1 cells were prepared in 150 μl of 1:1 DMEM and Matrigel (Corning, N.Y., USA), v/v) and injected into the mammary fat pads (MFP) of female nude mice. Mouse weight and tumor volume were measure daily using calipers. Tumor volumes were calculated as length×width^2×0.5. Once the tumor volume had reached about 90-100 mm^3, xenografts were randomized into groups. […] Mice were sacrificed 20-30 days after initiation of the treatments, and the tumors were collected and stored for subsequent analyses.
Series [6] deals with CT26. The conditions noted are these: 25-50 mg/kg daily and orally. As to the method: Female nude mice and Balb/c mice were injected with human colon carcinoma cell line, HCT-116, and murine colon carcinoma cell line, CT26, respectively, into flank region of mice.
4×10^6 HCT-116 and 1×10^6 cells were prepared either in matrigel:PBS or in PBS, respectively, and injected subcutaneously into flank region of mice. […] Mice body weight was measured regularly.

How the values of series [7] were obtained: Mice body weight was measured regularly, and organs were collected for determination of possible toxicity.
The nature of series [8]: Kinetic solubility in sodium phosphate buffer. Type of series: physicochemical. To be noted: pH 7.4, 25° C., 2 h.
Series [9] can be described thus: Stability in mouse liver microsomes. Type of series: in vitro ADME. (Liver microsomes are vesicles of endoplasmic reticulum, rich in cytochrome P450 enzymes.)
Series [10] has as its target CYP2C9 (Homo sapiens, UniProt P11712). To be noted: read-out: IC50 CYP2C9; human liver microsomes.
The target in series [11] is CYP2CD6 (Homo sapiens, UniProt P10635). To be noted: read-out: IC50 CYP2CD6; human liver microsomes.
[12] abbreviates: 2 mg/kg (po. or i.v) or 5 mg/kg (po.) every two days for 30 days.
Where [13] appears, read: 5 mg/kg oral every other day for 30 days.

Read-outs that look alike come from different tables or passages of the source. Some results are limits rather than exact numbers.

Chain of CYP2CD6 (P10635 whole entry): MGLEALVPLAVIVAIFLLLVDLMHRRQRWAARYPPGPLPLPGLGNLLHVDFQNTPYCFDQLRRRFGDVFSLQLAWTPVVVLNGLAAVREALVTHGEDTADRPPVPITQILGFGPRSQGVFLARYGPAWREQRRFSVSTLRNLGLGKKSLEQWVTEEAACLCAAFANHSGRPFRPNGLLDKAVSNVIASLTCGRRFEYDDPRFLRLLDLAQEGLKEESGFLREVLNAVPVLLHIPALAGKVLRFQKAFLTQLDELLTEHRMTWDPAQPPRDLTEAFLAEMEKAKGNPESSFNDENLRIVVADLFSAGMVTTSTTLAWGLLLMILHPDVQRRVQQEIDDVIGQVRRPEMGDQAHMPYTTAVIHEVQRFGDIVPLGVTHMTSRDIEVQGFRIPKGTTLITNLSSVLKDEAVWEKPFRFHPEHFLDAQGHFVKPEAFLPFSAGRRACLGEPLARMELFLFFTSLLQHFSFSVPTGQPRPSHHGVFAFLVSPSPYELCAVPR
Chain of CYP2C9 (P11712 whole entry): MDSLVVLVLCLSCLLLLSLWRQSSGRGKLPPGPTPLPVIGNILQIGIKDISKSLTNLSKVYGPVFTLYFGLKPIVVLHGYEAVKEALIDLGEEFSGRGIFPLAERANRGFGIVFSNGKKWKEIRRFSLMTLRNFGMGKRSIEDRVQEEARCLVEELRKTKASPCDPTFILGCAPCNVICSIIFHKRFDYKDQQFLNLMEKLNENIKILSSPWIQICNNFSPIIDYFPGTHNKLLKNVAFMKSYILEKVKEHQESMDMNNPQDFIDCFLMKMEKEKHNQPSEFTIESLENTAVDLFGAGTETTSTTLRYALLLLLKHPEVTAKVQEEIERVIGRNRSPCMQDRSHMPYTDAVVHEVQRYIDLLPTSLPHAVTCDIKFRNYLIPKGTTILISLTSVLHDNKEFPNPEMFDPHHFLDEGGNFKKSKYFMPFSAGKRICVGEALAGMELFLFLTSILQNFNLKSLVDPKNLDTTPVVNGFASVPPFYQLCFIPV

Take `COc1ccc(-c2cc(Nc3ccnc(N4CCOCC4)n3)on2)cc1` [Compound 5]: in series [1] (JIMT-1 cells, read-out: IC50), the IC50 worked out at 120 nM. Moreover, the IC50 in [1] (cultured cells, in-house screening on JIMT-1, read-out: IC50, suppresses cell growth) stood at 190 nM. Moreover, in [2], the “average colony number compared with other two inhibitors at the same doses” value is “significantly lower”. The “frequency of multipolar spindles” value in [3] is listed as 73.4%. The “share of NCI-60 cell lines with less than 1 μM GI50 value” in [4] is about 90%. The GI50 in series [4] (Homo sapiens, read-out: 50% growth inhibition (GI50) value, almost all cell lines) is under 1000 nM. Moreover, in [5] (setting [12]), the “body weight of mice” value is “did not have any negative effect on the body weight” and the “tumor growth rate compared with control group” value is “decreased”. Further, in [5] (setting [13]), the “body weight of mice” value is reported as “no major effect on the body weight” and the “tumor growth as compared to SPL-B” value is “significant reduction of tumor growth”. In series [5] (25 mg/kg, po., 23 days), the mice weight entry was “did not affect the mice weight”, the “tumor growth compared to vehicle-treated mice” value was “very significant reduction of tumor growth” and the “tumor weights compared to vehicle group” value was “significantly lower”. For the same compound, in series [6], the tolerability result is listed as “well tolerated” and the tumor growth result is given as “significantly impaired tumor growth”. For the same compound, the “body weight and observable toxicity” value in [7] (100 mg/kg daily for 7 days) is “did not affect body weight”. Moreover, in [7] (500 mg/kg once), the organ toxicity result is “no organ toxicity was observable”. Besides, the “loss of body weight” value in [7] (500 mg/kg once, 24 h after drug treatment) amounted to 10%. Moreover, the solubility entry in series [8] is “low solubility”. In series [9], the “stability in mouse liver microsomes” value is “low stability”. Further, the IC50 in series [10] worked out at 2630 nM. The IC50 in series [11] was 18500 nM.

One may read the IC50 as the concentration at which inhibition is half-maximal. For orientation: GI50 means the concentration at which growth is held to half of that of the control.
